Read-outs that look alike come from different tables or passages of the source. Where a SMILES comes first, the peptide text is derived from it. [ ]: non-standard residue; d: D form. pGlu = O=C1CC[C@@H](C(=O)O)N1; Orn = NCCC[C@H](N)C(=O)O
How the values were obtained:
bradykinin = assay: Effect of decapeptides as bradykinin potentiators (injection into femoral vein soon before bradykinin); format: in vivo, Male C.D. rats; conditions: for Duration of hypotensive effect (t) / Pressure Difference Maximum / Pressure Difference Minimum: bradykinin potentiation, femoral vein soon before bradykinin; for potentiation of the hypotensive effect / activity of bradykinin (in words): in vivo, male rats
Description: (§1) The activity of the decapeptides of the present invention has been determined in vivo on C.D. male rats available from Charles-River Co., anesthetized by ethyl urethane.
(§2) The effect on the arterial pressure and on bradykinin potentating has been studied by injecting into femoral vein a decapeptide (I) in an amount of from 0.3 to 0.2 mg/kg of body weight.
Male C.D. rats of Charles-River race are treated as described in Example 8, and submitted to test by bradykinin.
Bradykinin is a physiologic peptide which, when injected into femoral vein, causes a fast but not long-lasting hypotensive effect, because it is rapidly degraded at pulmonary circulation level by the Angiotensin Conversion Enzyme (ACE).
The peptides of the present invention are tested by being injected into the right-hand femoral vein soon before bradykinin, and comparing them to the decapeptide of the prior art.

arterial pressure [1] = assay: Effect of the decapeptides on arterial pressure (injection into femoral vein of anaesthetized rats); format: in vivo, C.D. male rats; conditions: for Duration of hypotensive effect / Pressure Difference Maximum / Pressure Difference Minimum / hypotensive effect (in words): femoral vein; for Duration of hypotensive effect / Pressure Difference Maximum / Pressure Difference Minimum: anaesthetized rats
Description: as §1, §2
Five C.D. male rats available from Charles River Co., of weight of 200-300 g, anaesthetized by ethyl urethane (1.75 g/kg by intraperitoneal way) are used.
After tracheal cannulating, the right-hand carotid artery is isolated and connected by cannula to a Hewlett-Packard Model 1280 pressure transducer.
From isolated left-hand carotid the arterial flow is recorded by means of Biotronex® electromagnetic flowmeter, and pressure variation wiith the (dp/dt), electrocardiogram (ECG) and the beats per minute (BPM) are recorded on Hewlett Packard Polygraph.
The decapeptides of the present invention have been tested by being injected into right-hand femoral vein at the dose of 0.3-0.2 mg/kg of body weight, and compared to the decapeptide (II) of the prior art.

arterial pressure [2] = conditions: injected into the femoral vein of rats; cited from earlier work
arterial pressure [3] = conditions: cited from earlier work

Structure (SMILES)	Duration of hypotensive effect (t) (bradykinin; 0.3 mg/kg)	Pressure Difference Maximum (bradykinin; 0.3 mg/kg)	Pressure Difference Minimum (bradykinin; 0.3 mg/kg)	Duration of hypotensive effect (arterial pressure [1]; 0.3 mg/kg)	Pressure Difference Maximum (arterial pressure [1]; 0.3 mg/kg)	Pressure Difference Minimum (arterial pressure [1]; 0.3 mg/kg)	lowering in arterial pressure (arterial pressure [2])	potentiation of the activity of bradykinin (arterial pressure [2])	potentiation of the hypotensive effect / activity of bradykinin (in words) (bradykinin)	eurhythmizing effect (arterial pressure [1]; in vivo, male rats)	hypotensive effect (in words) (arterial pressure [1]; in vivo, male rats)	Duration of hypotensive effect (t) (bradykinin; 0.2 mg/kg)	Pressure Difference Maximum (bradykinin; 0.2 mg/kg)	Pressure Difference Minimum (bradykinin; 0.2 mg/kg)	Duration of hypotensive effect (arterial pressure [1]; 0.2 mg/kg)	Pressure Difference Maximum (arterial pressure [1]; 0.2 mg/kg)	Pressure Difference Minimum (arterial pressure [1]; 0.2 mg/kg)	antihypertensive action (arterial pressure [3]; administered orally)	antihypertensive action (arterial pressure [3]; intravenous administration)
CC[C@H](C)[C@H](NC(=O)[C@H](CCC(N)=O)NC(=O)[C@@H]1CCCN1C(=O)[C@H](CCCNC(=N)N)NC(=O)[C@@H]1CCCN1C(=O)[C@H](Cc1c[nH]c2ccccc12)NC(=O)[C@H](CC(C)C)NC(=O)[C@@H]1CCC(=O)N1)C(=O)N1CCC[C@H]1C(=O)N1CCC[C@H]1C(=O)O [Decapeptide II, Glp-Leu-Trp-Pro-Arg-Pro-Gln-Ile-Pro-Pro-OH, reference compound] ([pGlu]LWPRPQIPP-OH)	10 min	15 mmHg	15 mmHg	10 min	15 mmHg	15 mmHg	causes a lowering in arterial pressure	potentiates the activity of bradykinin, prolonging the hypotensive effect thereof											
CC[C@H](C)[C@H](NC(=O)[C@H](CCC(N)=O)NC(=O)[C@@H]1CCCN1C(=O)[C@H](CCCN)NC(=O)[C@@H]1CCCN1C(=O)[C@H](Cc1c[nH]c2ccccc12)NC(=O)[C@H](CC(C)C)NC(=O)[C@@H]1CCC(=O)N1)C(=O)N1CCC[C@H]1C(=O)N1CCC[C@H]1C(=O)O [Decapeptide III, Glp-Leu-Trp-Pro-Orn-Pro-Gln-Ile-Pro-Pro-OH] ([pGlu]LWP[Orn]PQIPP-OH)	90 min	15 mmHg	15 mmHg	> 10 min	20 mmHg	25 mmHg			potentiates the hypotensive effect of bradykinin	shows an eurhythmizing effect	stronger and more long-lasting hypotensive effect than decapeptide (II)								
CC(C)C[C@H](NC(=O)[C@@H]1CCC(=O)N1)C(=O)N[C@@H](Cc1c[nH]c2ccccc12)C(=O)N1CCC[C@H]1C(=O)N[C@@H](CCCN)C(=O)N1CCC[C@H]1C(=O)N[C@@H](Cc1c[nH]cn1)C(=O)N[C@H](C(=O)N1CCC[C@H]1C(=O)N1CCC[C@H]1C(=O)O)C(C)C [Decapeptide IV, Glp-Leu-Trp-Pro-Orn-Pro-His-Val-Pro-Pro-OH] ([pGlu]LWP[Orn]PHVPP-OH)									potentiate the activity of bradykinin		cause in vivo a hypotensive effect	45 min	25 mmHg	30 mmHg	< 10 min	20 mmHg	25 mmHg		
CC(C)C[C@H](NC(=O)[C@@H]1CCC(=O)N1)C(=O)N[C@@H](Cc1c[nH]c2ccccc12)C(=O)N1CCC[C@H]1C(=O)N[C@@H](CCCNC(=N)N)C(=O)N1CCC[C@H]1C(=O)N[C@@H](Cc1c[nH]cn1)C(=O)N[C@H](C(=O)N1CCC[C@H]1C(=O)N1CCC[C@H]1C(=O)O)C(C)C [Decapeptide V, Glp-Leu-Trp-Pro-Arg-Pro-His-Val-Pro-Pro-OH] ([pGlu]LWPRPHVPP-OH)									potentiate the activity of bradykinin		cause in vivo a hypotensive effect	30 min	15 mmHg	30 mmHg	< 10 min	15 mmHg	15 mmHg		
CC[C@H](C)[C@H](NC(=O)[C@H](CCC(N)=O)NC(=O)[C@@H]1CCCN1C(=O)[C@H](CCCNC(=N)N)NC(=O)[C@@H]1CCCN1C(=O)[C@H](Cc1c[nH]c2ccccc12)NC(=O)[C@@H]1CCC(=O)N1)C(=O)N1CCC[C@H]1C(=O)N1CCC[C@H]1C(=O)O [Teprotide]																		inactive when administered orally	powerful antihypertensive agent

From patent US4810779A, “Decapeptides having hypotensive action and process for their preparation” (Enichem Elastomeri S.p.A., priority 1985, dated 1989)
